Where two headings read alike, the source gives them in different places.
Tests used:
[1] = system: spontaneously hypertensive rats; experiment: Antihypertensive effects in spontaneously hypertensive rats, oral, tail cuff method; type: in vivo; conditions: systolic blood pressure higher than 150 mmHg
Method: Oral administration: The systolic blood pressure was measured indirectly from the tail cuff method using a programmed electrosphygmanometer (Narco Bio-Systems Inc., PE-300) on spontaneously hypertensive rats having a systolic blood pressure higher than 150 mmHg, the results being shown in Table II.

α-adrenergic = experiment: α-Adrenergic blocking action: antagonism of the hypertensive response to phenylephrine in anesthetized, pentolinium-treated rats; type: in vivo; conditions: Rattus norvegicus, iv, read-out: α-adrenergic blocking ED50
Method: A. α-Adrenergic blocking action:
The blood pressure was measured in the rats anesthetized with urethane and treated with pentolinium.

α- and β-adrenergic = conditions: as disclosed in British Pat. No. 2,006,772; cited from earlier work
[2] = rats anesthetized with urethane, treated with pentolinium, phenylephrine 10 μg/Kg i.v.

Compound | Change in systolic blood pressure at stated dose p.o. ([1]; 10 mg/Kg p.o.) | ED50 (α-adrenergic; [2]) [µg/kg] | ED50 (α-adrenergic) [µg/kg] | further results
COc1ccccc1OCCNCC(O)c1ccc(C)c(S(N)(=O)=O)c1 (centres unmarked) [Compound A, 5-{1-hydroxy-2-[2-(2-methoxyphenoxy)ethylamino]ethyl}-2-methylbenzenesulfonamide, reference compound] | -35 ± 6.4 mmHg | 34 |  | α- and β-adrenergic blocking actions (α- and β-adrenergic): strong α- and β-adrenergic blocking actions
CNS(=O)(=O)c1cc(CC(C)NCCOc2ccccc2OC)ccc1OC.Cl (centres unmarked) [Example 4, 2-methoxy-5-{2-[2-(2-methoxyphenoxy)ethylamino]-2-methylethyl}-N-methylbenzenesulfonamide hydrochloride] |  |  | 0.35 | 
COc1ccccc1OCCNC(C)Cc1ccc(OC)c(S(=O)(=O)N(C)C)c1.Cl (centres unmarked) [Example 5, 2-Methoxy-5-{2-[2-(2-methoxyphenoxy)ethylamino]-2-methylethyl}-N,N-dimethylbenzenesulfonamide hydrochloride] |  |  | 0.26 | 
COc1ccccc1OCCNCCc1ccc(OC)c(S(N)(=O)=O)c1.Cl [Example 10, 2-methoxy-5-{2-[2-(2-methoxyphenoxy)ethylamino]ethyl}benzenesulfonamide hydrochloride] | -57 ± 5.6 mmHg | 5.9 |  | 
COc1ccccc1OCCNCCc1ccc(C)c(S(N)(=O)=O)c1.Cl [Example 11, 5-{2-[2-(2-Methoxyphenoxy)ethylamino]ethyl}-2-methylbenzenesulfonamide hydrochloride] |  | 12 |  | Change in systolic blood pressure at stated dose p.o. ([1]; 30 mg/Kg p.o.): -50 ± 4.7 mmHg
CCOc1ccccc1OCCNCCc1ccc(C)c(S(N)(=O)=O)c1.Cl [Example 12, 5-{2-[2-(2-Ethoxyphenoxy)ethylamino]ethyl}-2-methylbenzenesulfonamide hydrochloride] | -48 ± 2.0 mmHg | 7.3 |  | 
COc1ccccc1OCCNCCc1ccc(O)c(S(N)(=O)=O)c1 [Example 15, 2-Hydroxy-5-{2-[2-(2-methoxyphenoxy)ethylamino]ethyl}benzenesulfonamide] | -54 ± 6.2 mmHg | 1.3 |  | 
COc1ccccc1OCCNC(C)Cc1ccc(OC)c(S(N)(=O)=O)c1.Cl (centres unmarked) [Example 16, 2-Methoxy-5-{2-[2-(2-methoxyphenoxy)ethylamino]-2-methylethyl}benzenesulfonamide hydrochloride] | -71 ± 11.1 mmHg |  | 0.8 | 
CCOc1ccccc1OCCNC(C)Cc1ccc(OC)c(S(N)(=O)=O)c1.Cl (centres unmarked) [Example 20, 5-{2-[2-(2-Ethoxyphenoxy)ethylamino]-2-methylethyl}-2-methoxybenzenesulfonamide hydrochloride] |  |  |  | Change in systolic blood pressure at stated dose p.o. ([1]; 3 mg/Kg p.o.): -57 ± 4.2 mmHg
COc1ccccc1OCCNC(C)Cc1ccc(C)c(S(N)(=O)=O)c1.Cl (centres unmarked) [Example 25, 5-{2-[2-(2-Methoxyphenoxy)ethylamino]-2-methylethyl}-2-methylbenzenesulfonamide hydrochloride] | -46 ± 3.6 mmHg |  | 1.2 | 
CCC(Cc1ccc(C)c(S(N)(=O)=O)c1)NCCOc1ccccc1OC.Cl (centres unmarked) [Example 26, 5-{2-[2-(2-Methoxyphenoxy)ethylamino]-2-ethylethyl}-2-methylbenzenesulfonamide hydrochloride] | -46 ± 4.3 mmHg | 4 |  | 
Cc1ccc(N(CC2=NCCN2)c2cccc(O)c2)cc1 [Phentolamine, phentolamine, reference compound] | +7.8 ± 5.0 mmHg | 61 |  | Change in systolic blood pressure at stated dose p.o. ([1]; 100 mg/Kg p.o.): -70 ± 10.1 mmHg

Reference: US4373106A, “Sulfamoyl-substituted phenethylamine derivatives and process of producing them” (Yamanouchi Pharmaceutical Co., Ltd., priority 1980, dated 1983)
